# Values quoted from earlier work in patent EP2033945A1, “Quaternary ammonium salts” (Infineum International Limited, priority 2007, dated 2009).
# Settings: first dissociation constant where the acid is polybasic; from CRC Handbook of Chemistry and Physics, 68th edition, page D161
row,Compound,pKa
1,O=C(O)c1ccccc1C(=O)O [phthalic acid],2.9
2,"O=C(O)c1c(O)cc(O)cc1O [2,4,6-trihydroxybenzoic acid]",1.7
